The values below come from publication PMC5961436, “PKA and PKC Modulators Affect Ion Channel Function and Internalization of Recombinant Alpha1 and Alpha1-Beta Glycine Receptors” (Frontiers in Molecular Neuroscience, 2018).

For one series, the system named is GlyR. Also on record: method as in Li and Yang, 2001. The note with it: ref Li and Yang, 2001; cited from earlier work.
A further series deals with homomeric α1 GlyRs. Also on record: method as in Uchiyama et al., 1994. Particulars: ref Uchiyama et al., 1994; cited from earlier work.
In another series the test system is nAChR. Also on record: method as in Wagoner and Pallotta, 1988. The note with it: cAMP-independent; ref Wagoner and Pallotta, 1988; cited from earlier work.
For another series, the system named is GlyRs. Also on record: method as in Salceda and Aguirre-Ramirez, 2005. The note with it: 10 μM Forskolin; ref Salceda and Aguirre-Ramirez, 2005; cited from earlier work.
Series [1] has as its system human heteromeric α1-β GlyRs. Description: Whole-cell patch-clamp of glycine induced currents, modulators in the intracellular buffer, HEK293 cells expressing GlyR α1-β. It is filed as cell-based. The note with it: for desensitization of glycine induced currents / effect on EC50 compared to control / Fraction of desensitizing cells / Imax: 0.5 μM modulator in intracellular buffer; for Fraction of desensitizing cells / Imax: mean ± SEM. Here is the method: (§1) HEK293 cells were grown in 10 cm tissue culture Petri dishes in Eagle minimal essential medium (Sigma-Aldrich Chemie GmbH, Munich, Germany) supplemented with 10% FBS (Invitrogen, Karlsruhe, Germany) and penicillin/streptomycin (Sigma-Aldrich Chemie GmbH, Munich, Germany) at 5% CO2 and 37°C in a water saturated atmosphere. For electrophysiological experiments, cells were plated on poly-L lysine treated glass coverslips in 6 cm dishes. Transfection was performed 1 day after cell passage using Gen-Carrier (Epoch Lifesciences, Sugarland, TX, USA): 1.3 μg of receptor DNA, 1.3 μg of green fluorescent protein DNA, and 2.6 μl GenCarrier were used, following the manufacturer’s instructions. Measurements were performed 2–4 days after transfection. HEK293 cells used for protein expression and internalization analysis were transfected using a modified calcium phosphate precipitation method. In brief, a mixture of plasmid DNA, CaCl2 (2.5M), 0.1× TE buffer and 2× HBS (50 mM HEPES, 12 mM glucose, 10 mM KCl, 280 mM NaCl, 1.5 mM Na2HPO4) was applied onto the cells for 6 h. A GlyR α1 to GlyR β ratio of 1:2 was used for co-expression. Transfection medium was replaced by fresh medium after 6 h. Immunocytochemical stainings were always done 24 h after transfection, biotinylation experiments were performed 48 h after transfection.
(§2) using a nonlinear algorithm in Microcal Origin. Here, Iglycine is the current amplitude at a given glycine concentration, Isat is the maximum current amplitude at saturating concentrations of glycine, EC50 is the glycine concentration at half-maximal current responses, and nHill is the Hill coefficient. Currents from each individual cell were normalized to the maximum response at saturating glycine concentrations. Significance of differences between EC50 values were determined using one-way ANOVA with p ≤ 0.05 (*) and p ≤ 0.01 (**) taken as significant. In all experiments, EC50 values were determined for each individual cell from a non-linear fit of dose response data to the logistic equation. An unweighted average ± standard error (SEM) was calculated from all individual EC50 values, without considering the fitting errors.
(§3) For time course analysis, a series of EC50 data was recorded from each cell. The first concentration-response curve, defined as t = 0, was recorded immediately after establishing the whole-cell configuration and positioning the cell in front of the delivery tube. […] Further recordings were made at t = 3 min, t = 6 min and t = 10 min (not attained with all cells). Time-independent recordings were taken at t = 0, and values of EC50 and Imax in the presence of PKA- or PKC modulators were normalized to control (no modulator). For time course analysis, responses were normalized to the control value at t = 0. Patch-clamp experiments were carried out on different dates and using different batches of HEK 293 cells. Since control EC50 values varied between different days of plating and between batches of cells, measurements with kinase modulators were always compared to control measurements recorded on the same day and from the same batch of cells.
Background: The patch-clamp technique gives a direct electrical read-out from membranes.

For the next series, the system named is human homomeric α1 GlyRs. Description: Whole-cell patch-clamp of glycine induced currents, modulators in the intracellular buffer, HEK293 cells expressing GlyR α1. The note with it: for change of Imax at t = 10 min normalized to t = 0: 0.25 μM intracellular modulator, one-way ANOVA; for effect on EC50: 0.25 μM modulator, t = 0; for desensitization of glycine induced currents / effect on EC50 compared to control / Fraction of desensitizing cells / Imax: 0.5 μM modulator in intracellular buffer; for Fraction of desensitizing cells / Imax: mean ± SEM. In kind it is cell-based. On the procedure:
as §1, §2, §3

In another series the test system is Igly. Set-up: method as in Min et al., 1996. Particulars: ref Min et al., 1996; cited from earlier work.
The subject of a further series is GlyR α1-β. Description: Receptor internalization assay (pre-labeled GlyRs, confocal microscopy) in HEK293 cells. In kind it is cell-based, human. Particulars: 200 nM modulator, 15 min, 37°C; untreated cells 1.7 ± 0.4 dots/cell; ± SEM. Here is the method: To stain internalized GlyRs, GlyR α1 was cotransfected with GlyR β into HEK293 cells grown on glass cover slips. Internalization experiments were performed 24 h post-transfection. Live cells co-expressing GlyR α1-β receptors were labeled with the α1-specific monoclonal antibody Mab2b (1:500 in Earle’s minimal essential medium for 1 h at 4°C). Earle’s minimal essential medium was supplemented with 10% fetal calf serum, […] GlutaMAX, 100 mM sodium pyruvate, and 50 U/ml penicillin/streptomycin (Thermo Fisher Scientific, Waltham, MA, USA). Mab2b was purchased from Synaptic Systems, Göttingen, Germany. Following three washing steps in phosphate-buffered saline (PBS, pH 7.4), cells were incubated with goat-anti-mouse-Cy3 secondary antibody again for 1 h at 4°C (dilution of secondary antibody 1:500 in Earle’s minimal essential medium, Dianova, Hamburg Germany). Glass cover slips with pre-labeled GlyRs were transferred into a 24-well plate containing 500 μl of Earle’s minimal essential medium with PKA and PKC modulators (200 nM final concentration each; Forskolin, H-89, PMA, Staurosporine aglycon, all from Sigma-Aldrich Chemie GmbH, Munich, Germany). Cells were incubated with modulators for 15 min to allow receptor internalization. Time point zero (0 min) was taken as a negative internalization control to ensure health of HEK293 cells (pre-labeling of GlyRs at 4°C inhibits internalization). Following incubation with PKA and PKC modulators, cells were stained with a second secondary antibody (donkey-anti-goat-Dyelight488, 1:250 in Earle’s minimal essential medium, Dianova, Hamburg, Germany) for 30 min at 4°C to label receptor retained at the cellular surface. Cells were fixed with 4% paraformaldehyde, 4% sucrose in PBS for 15 min at 4°C, washed three times in PBS and stained with 4′,6-diamidino-2-phenylindole (DAPI, Thermo Fisher Scientific, Waltham, MA, USA) to label the cell nuclei for 5 min at 4°C (1:5000 in PBS). Coverslips were washed again with PBS and Aqua Dest and mounted on glass slides using mowiol.
The images were obtained using an inverted Olympus IX81 microscope equipped with an Olympus FV1000 confocal laser scanning system, a FVD10 SPD spectral detector and diode lasers of 495 nm (Alexa488) and 550 nm (Cy3; Olympus, Tokyo, Japan), and an Olympus UPLSAPO 60× (oil, numerical aperture: 1.35) objective. Adobe Photoshop (Adobe, San Jose, CA, USA) or ImageJ (1.51)/Fiji^1 were used for image analysis.

Series [2] has as its system glycine activated chloride currents. Also on record: method as in Ren et al., 1998. The note with it: added to the pipette solution; ref Ren et al., 1998; cited from earlier work.
Another series relates to HEK293 cells. Description: Tolerance of HEK293 cells to intracellular kinase modulators during patch-clamp. The note with it: intracellular concentration raised to 1 μM.

On to `C=C[C@@]1(C)CC(=O)[C@@H]2[C@@]3(C)CCCC(C)(C)[C@@H]3[C@H](O)[C@H](OC(C)=O)[C@@]2(C)O1` [1,9-dideoxy Forskolin], for which the “effect on desensitization of whole cell responses” value with GlyR is “accelerates the desensitization effectively”.
Take `CCCCCCCCCCCCCC(=O)O[C@@H]1[C@@H](C)[C@@]2(O)[C@@H](C=C(CO)C[C@@]3(O)C(=O)C(C)=C[C@@H]23)[C@@H]2C(C)(C)[C@]12OC(C)=O` [4-alpha-PMA]: the “effect on glycine currents” value in the series with homomeric α1 GlyRs is “did not affect the glycine currents”.
As for `CCCCCCCCCCCCCC(=O)O[C@@H]1[C@@H](C)[C@@]2(O)[C@@H](C=C(CO)C[C@]3(O)C(=O)C(C)=C[C@@H]23)[C@@H]2C(C)(C)[C@]12OC(C)=O` [4-beta-PMA], the “effect on glycine currents” value with homomeric α1 GlyRs is recorded as “Reduced responses”.
In the case of `C=C[C@@]1(C)CC(=O)[C@]2(O)[C@@]3(C)[C@@H](O)CCC(C)(C)[C@@H]3[C@H](O)[C@H](OC(C)=O)[C@@]2(C)O1` [Forskolin], the “effect on desensitization of the nAChR” value in the series on nAChR was “enhancement of desensitization”. Besides, the “reduction of specific binding of both radioligands” value in the series with GlyRs was 30%–90%. In series [1], the “desensitization of glycine induced currents” value is listed as “faster desensitization”, the “effect on EC50 compared to control” value is on record as “significant increase”, the “Fraction of desensitizing cells” value is listed as 0.52 ± 0.07 and the Imax was 0.99 ± 0.24 nA. Moreover, in the series on human homomeric α1 GlyRs, the “change of Imax at t = 10 min normalized to t = 0” value is listed as “significantly reduced” and the “effect on EC50” value is “increased EC50”. Moreover, in the series with human homomeric α1 GlyRs (GlyR α1), the “desensitization of glycine induced currents” value is “faster desensitization”, the “effect on EC50 compared to control” value is given as “significant increase”, the “Fraction of desensitizing cells” value is 0.57 ± 0.12 and the Imax is 1.20 ± 0.24 nA. Further, the “effect on Igly” value with Igly is given as “inhibited Igly potentiation”. This molecule showed an internalized receptor with GlyR α1-β of 6.9 ± 1.5 dots/cell. Besides, the “effect on desensitization of whole cell responses” value in the series on GlyR was “markedly accelerates desensitization”.
With `O=S(=O)(NCCNC/C=C/c1ccc(Br)cc1)c1cccc2cnccc12` [H-89], in series [1], the “desensitization of glycine induced currents” value is “non-desensitizing current responses”, the “effect on EC50 compared to control” value is reported as “decreased EC50 values”, the “Fraction of desensitizing cells” value was determined as 0.19 ± 0.09 and the Imax was determined as 1.37 ± 0.28 nA. In the series with human homomeric α1 GlyRs, the “change of Imax at t = 10 min normalized to t = 0” value was “not significant” and the “effect on EC50” value is “opposite effect”. For the same molecule, in the series on human homomeric α1 GlyRs (GlyR α1), the “desensitization of glycine induced currents” value is given as “non-desensitizing current responses”, the “effect on EC50 compared to control” value is “decreased EC50 values”, the “Fraction of desensitizing cells” value is 0.07 ± 0.03 and the Imax is 1.91 ± 0.57 nA. Moreover, in the series on Igly, the “effect on Igly” value is on record as “potentiation of Igly”. The same molecule had an internalized receptor with GlyR α1-β of 4.0 ± 1.0 dots/cell. Besides, in [2], the “effect on ATP induced run-up of the glycine current” value is listed as “blocked”.
Consider `O=C1NCc2c1c1c3ccccc3[nH]c1c1[nH]c3ccccc3c21` [Staurosporine aglycon], for which, in the series on homomeric α1 GlyRs, the “effect of 4-beta-PMA in the presence of Staurosporine aglycon” value is reported as “the effect was inhibited”. In addition, in series [1], the “desensitization of glycine induced currents” value is listed as “slow or no desensitization”, the “effect on EC50 compared to control” value is listed as “decrease of half maximum values”, the “Fraction of desensitizing cells” value is 0.06 ± 0.04 and the Imax is 1.11 ± 0.20 nA. In addition, in the series with human homomeric α1 GlyRs, the “change of Imax at t = 10 min normalized to t = 0” value is “not significant” and the “effect on EC50” value is “opposite effect”. Further, in the series on human homomeric α1 GlyRs (GlyR α1), the “desensitization of glycine induced currents” value is “slow or no desensitization”, the “effect on EC50 compared to control” value is recorded as “decrease of half maximum values”, the “Fraction of desensitizing cells” value amounted to 0.10 ± 0.05 and the Imax is recorded as 1.70 ± 0.29 nA. The same molecule gave an internalized receptor in the series with GlyR α1-β of 2.3 ± 0.5 dots/cell. In addition, the cell survival result in the series on HEK293 cells is given as “cells did not survive”.
For orientation: EC50 means the midpoint of the concentration-response curve. Low readings indicate an effect from little substance, high ones a need for much substance. Turning to `NCC(=O)O` [glycine], the EC50 in series [1] (absence of modulators, n = 8) was 45.4 ± 6 µM; in the series with human homomeric α1 GlyRs (GlyR α1, absence of modulators, n = 11), 37.4 ± 3.7 µM.
